ChEMBL document CHEMBL4619763 (J Nat Prod, 2020)
Calls of active or inactive are those of the source. The calls are words filed in the database; no cut-off is given here.

Experiments:
Rattus norvegicus [1] = experiment: Diuretic activity in normotensive Wistar rat assessed as urinary calcium excretion at 1 mg/kg, po administered via gavage after 8 hrs (reference value: 5.93 to 6.87 mg/dl); format: functional
[2] = Anti-urolithic activity in synthetic urine assessed as decrease in absorbance at 0.1 mg/mL after 60 mins relative to control; format: functional; set-up: scale not given: the % may be the effect or the level left
Rattus norvegicus [3] = experiment: Diuretic activity in normotensive Wistar rat assessed as urinary sodium excretion at 0.1 mg/kg, ip after 8 hrs (reference value: 81.56 +/- 13.10 mmol/L); format: functional
Rattus norvegicus [4] = experiment: Diuretic activity in normotensive Wistar rat assessed as urinary calcium excretion at 0.1 mg/kg, po administered via gavage after 8 hrs (reference value: 5.93 to 6.87 mg/dl); format: functional
Rattus norvegicus [5] = experiment: Diuretic activity in normotensive Wistar rat assessed as urinary chloride excretion at 0.1 mg/kg, po administered via gavage after 8 hrs in presence of hydrochlorothiazide (reference value: 135.10 to 143.70 mmol/L); format: functional
[6] = Toxicity in normotensive Wistar rat assessed as changes in plasma AST level at 0.1 mg/kg, po administered for 7 days; format: organism-based; conditions: in vivo, 168 h
Rattus norvegicus [7] = experiment: Diuretic activity in normotensive Wistar rat assessed as urinary calcium excretion at 0.1 mg/kg, po administered via gavage after 8 hrs in presence of atropine (reference value: 5.93 to 6.87 mg/dl); format: functional
Rattus norvegicus [8] = experiment: Diuretic activity in normotensive Wistar rat assessed as urine conductivity at 0.01 mg/kg, ip after 8 hrs (reference value: 24.87 +/- 0.54 mS/cm); format: functional
Rattus norvegicus [9] = experiment: Diuretic activity in normotensive Wistar rat assessed as urine conductivity at 0.1 mg/kg, po administered via gavage after 8 hrs in presence of amiloride (reference value: 19.54 +/- 0.98 mS/cm); format: functional
Rattus norvegicus [10] = experiment: Diuretic activity in normotensive Wistar rat assessed as urine conductivity at 1 mg/kg, po administered via gavage after 8 hrs (reference value: 19.54 +/- 0.98 mS/cm); format: functional
Rattus norvegicus [11] = experiment: Renal protective activity in spontaneous hypertensive Wistar rat assessed as reduction in hypertension-induced Bowman's capsule thickening at 0.1 mg/kg, po administered via gavage for 7 days by hematoxylin and eosin staining based microscopic analysis; format: functional, organism-based
Rattus norvegicus [12] = experiment: Anti-urolithic activity in spontaneous hypertensive Wistar rats assessed as reduction in CaOx crystal formation in cumulative urine at 0.1 mg/kg, po administered via gavage in presence of sodium oxalate by Neubauer counting chamber method relative to control; format: functional; set-up: scale not given: the % may be the effect or the level left
Rattus norvegicus [13] = experiment: Diuretic activity in spontaneous hypertensive Wistar rat assessed as effect on urinary potassium excretion at 0.1 mg/kg, po administered via gavage for 7 days; format: ADME, organism-based; conditions: in vivo, 168 h
Rattus norvegicus [14] = experiment: Diuretic activity in normotensive Wistar rat assessed as urinary sodium excretion at 1 mg/kg, ip after 8 hrs (reference value: 81.56 +/- 13.10 mmol/L); format: functional
Rattus norvegicus [15] = experiment: In vivo antioxidant activity in Wistar rat model of hypertension-induced oxidative stress assessed as reduction in nitrite level in renal tissue at 0.1 mg/kg, po administered via gavage for 7 days by Griess reagent based assay; format: functional, organism-based
Rattus norvegicus [16] = experiment: Diuretic activity in normotensive Wistar rat assessed as urinary calcium excretion at 0.1 mg/kg, […] administered via gavage after 8 hrs (reference value: 5.28 +/- 0.09 mg/dl); format: functional
Rattus norvegicus [17] = experiment: Diuretic activity in normotensive Wistar rat assessed as urine pH at 1 mg/kg, ip after 8 hrs (reference value: 6.05 +/- 0.22); format: functional
Rattus norvegicus [18] = experiment: Diuretic activity in normotensive Wistar rat assessed as urine pH at 0.1 mg/kg, po administered via gavage after 8 hrs in presence of amiloride (reference value: 6.14 to 6.21); format: functional
Rattus norvegicus [19] = experiment: Diuretic activity in normotensive Wistar rat assessed as urinary potassium excretion at 0.01 mg/kg, po administered via gavage after 8 hrs (reference value: 22.39 to 24.21 mmol/L); format: ADME, organism-based; conditions: in vivo
Rattus norvegicus [20] = experiment: Diuretic activity in normotensive Wistar rat assessed as urinary sodium excretion at 0.1 mg/kg, po administered via gavage after 8 hrs in presence of L-NAME (reference value: 61.82 to 80.81 mmol/L); format: functional
Rattus norvegicus [21] = experiment: Diuretic activity in normotensive Wistar rat assessed as urine conductivity at 0.1 mg/kg, po administered via gavage after 8 hrs in presence of hydrochlorothiazide (reference value: 19.54 +/- 0.98 mS/cm); format: functional
Rattus norvegicus [22] = experiment: Diuretic activity in normotensive Wistar rat assessed as urinary potassium excretion at 1 mg/kg, po administered via gavage after 8 hrs (reference value: 22.39 to 24.21 mmol/L); format: ADME, organism-based; conditions: in vivo
Rattus norvegicus [23] = experiment: Diuretic activity in normotensive Wistar rat assessed as increase in urine volume excretion at 0.1 to 1 mg/kg, po administered via gavage after 1 hr; format: functional, organism-based
Rattus norvegicus [24] = experiment: Diuretic activity in normotensive Wistar rat assessed as urinary potassium excretion at 0.1 mg/kg, po administered via gavage after 8 hrs in presence of L-NAME (reference value: 22.39 to 24.21 mmol/L); format: ADME, organism-based; conditions: in vivo
[25] = Toxicity in spontaneous hypertensive Wistar rat assessed as changes in plasma AST level at 0.1 mg/kg, po administered for 7 days; format: organism-based; conditions: in vivo, 168 h
[26] = Toxicity in spontaneous hypertensive Wistar rat assessed as changes in urinary creatinine at 0.1 mg/kg, po administered for 7 days; format: organism-based; conditions: in vivo, 168 h
Rattus norvegicus [27] = experiment: Diuretic activity in normotensive Wistar rat assessed as urine pH at 0.1 mg/kg, po administered via gavage after 8 hrs in presence of furosemide (reference value: 6.14 to 6.21); format: functional
Rattus norvegicus [28] = experiment: Diuretic activity in normotensive Wistar rat assessed as urinary chloride excretion at 0.1 mg/kg, po administered via gavage after 8 hrs in presence of furosemide (reference value: 135.10 to 143.70 mmol/L); format: functional
[29] = Anti-urolithic activity in synthetic urine assessed as decrease in absorption at 0.1 mg/mL relative to control; format: functional; set-up: scale not given: the % may be the effect or the level left
Rattus norvegicus [30] = experiment: Diuretic activity in normotensive Wistar rat assessed as urine conductivity at 0.1 mg/kg, ip after 8 hrs (reference value: 24.87 +/- 0.54 mS/cm); format: functional
Rattus norvegicus [31] = experiment: Diuretic activity in normotensive Wistar rat assessed as urinary sodium excretion at 0.1 mg/kg, po administered via gavage after 8 hrs in presence of indomethacin (reference value: 61.82 to 80.81 mmol/L); format: functional
Rattus norvegicus [32] = experiment: Diuretic activity in normotensive Wistar rat assessed as urinary chloride excretion at 1 mg/kg, ip […] after 8 hrs (reference value: 103.30 +/- 10.25 mmol/L); format: functional
Rattus norvegicus [33] = experiment: Diuretic activity in normotensive Wistar rat assessed as urine conductivity at 0.1 mg/kg, po administered via gavage after 8 hrs in presence of L-NAME (reference value: 19.54 +/- 0.98 mS/cm); format: functional
Rattus norvegicus [34] = experiment: Diuretic activity in normotensive Wistar rat assessed as urine conductivity at 0.1 mg/kg, po administered via gavage after 8 hrs in presence of indomethacin (reference value: 19.54 +/- 0.98 mS/cm); format: functional
Rattus norvegicus [35] = experiment: Diuretic activity in normotensive Wistar rat assessed as urine pH at 0.1 mg/kg, po administered via gavage after 8 hrs in presence of atropine (reference value: 6.14 to 6.21); format: functional

With `C[C@@H]1O[C@@H](Oc2c(-c3ccc(O)cc3)oc3cc(O)cc(O)c3c2=O)[C@H](O)[C@H](O)[C@H]1O` [AFZELIN] the Activity (Rattus norvegicus [1]) was 6.08 mg/dL, the Activity [2] was 27.21% and the Activity (Rattus norvegicus [3]) was 40.93 mmol/L. The Activity (Rattus norvegicus [4]) was 5.22 to 6.33 mg/dL, the Activity (Rattus norvegicus [5]) was 333.4 mmol/L and the Activity [6] was “Non-Toxic”. The Activity (Rattus norvegicus [7]) was 4.69 mg/dL, the Activity (Rattus norvegicus [8]) was 26.4 mS/cm and the Activity (Rattus norvegicus [9]) was 15.25 mS/cm. For the same compound, the Activity (Rattus norvegicus [10]) was 17.48 mS/cm, the Activity (Rattus norvegicus [11]) was “Active” and the Activity (Rattus norvegicus [12]) was 92.53%. The Activity (Rattus norvegicus [13]) was “Non-Toxic”, the Activity (Rattus norvegicus [14]) was 62.46 mmol/L and the Activity (Rattus norvegicus [15]) was “Active”. For the same compound, the Activity (Rattus norvegicus [16]) was 5.51 mg/dL, the pH (Rattus norvegicus [17]) was 5.91 and the pH (Rattus norvegicus [18]) was 6.26. For the same compound, the Activity (Rattus norvegicus [19]) was 17.98 mmol/L, the Activity (Rattus norvegicus [20]) was 75.14 mmol/L and the Activity (Rattus norvegicus [21]) was 19.83 mS/cm. The Activity (Rattus norvegicus [22]) was 22.5 mmol/L, the Activity (Rattus norvegicus [23]) was “Active” and the Activity (Rattus norvegicus [24]) was 14.84 mmol/L. The Activity [25] was “Non-Toxic”, the Activity [26] was “Non-Toxic” and the pH (Rattus norvegicus [27]) was 6.25. For the same compound, the Activity (Rattus norvegicus [28]) was 154.7 mmol/L, the Activity [29] was 27.81% and the Activity (Rattus norvegicus [30]) was 24.35 mS/cm. For the same compound, the Activity (Rattus norvegicus [31]) was 81.55 mmol/L, the Activity (Rattus norvegicus [32]) was 107.4 mmol/L and the Activity (Rattus norvegicus [33]) was 15.97 mS/cm. For the same compound, the Activity (Rattus norvegicus [34]) was 19.34 mS/cm and the pH (Rattus norvegicus [35]) was 6.14.
